Values after ≈ are worked out from the molar mass of the structure shown. Square brackets hold non-standard residues; d marks the D form. Peptide text beside a SMILES is read from it.
Legend:
[1] = Induction of programmed cell death in human MEC1 cells at 200 uM after 2 hrs by Annexin-V/propidium iodide staining based FACS analysis; type: functional
[2] = system: A549; test: Induction of apoptosis in human A549 cells assessed as late apoptotic cells at 200 uM after 2 hrs by Annexin-V/propidium iodide staining based FACS analysis (reference value: 5%); type: functional
[3] = system: HCT-116; test: Induction of apoptosis in human HCT116 cells assessed as late apoptotic cells at 200 uM after 2 hrs by Annexin-V/propidium iodide staining based FACS analysis (reference value: 5%); type: functional
[4] = system: MCF7; test: Induction of programmed cell death in human MCF7 cells after 2 hrs by Annexin-V/propidium iodide staining based FACS analysis; type: functional
[5] = Induction of programmed cell death in human A549 cells at 50 uM after 2 hrs by Annexin-V/propidium iodide staining based FACS analysis; type: functional
[6] = system: MCF7; test: Induction of apoptosis in human MCF7 cells assessed as late apoptotic cells at 200 uM after 2 hrs by Annexin-V/propidium iodide staining based FACS analysis (reference value: 22%); type: functional
[7] = system: MCF7; test: Induction of apoptosis in human MCF7 cells assessed as early apoptotic cells at 200 uM after 2 hrs by Annexin-V/propidium iodide staining based FACS analysis (reference value: 4%); type: functional
[8] = Induction of programmed cell death in human HCT116 cells at 200 uM after 2 hrs by Annexin-V/propidium iodide staining based FACS analysis; type: functional, HCT-116
[9] = Induction of programmed cell death in human HCT116 cells at 50 uM after 2 hrs by Annexin-V/propidium iodide staining based FACS analysis; type: functional, HCT-116
[10] = system: A549; test: Induction of programmed cell death in human A549 cells after 2 hrs by Annexin-V/propidium iodide staining based FACS analysis; type: functional
[11] = system: HCT-116; test: Induction of apoptosis in human HCT116 cells assessed as early apoptotic cells at 200 uM after 2 hrs by Annexin-V/propidium iodide staining based FACS analysis (reference value: 4%); type: functional
[12] = Metabolic stability in human serum at 10 mg/ml at 37 degC after 2 hrs by HPLC analysis; type: ADME
[13] = Induction of programmed cell death in human MEC1 cells at 50 uM after 2 hrs by Annexin-V/propidium iodide staining based FACS analysis; type: functional
[14] = system: HCT-116; test: Induction of programmed cell death in human HCT116 cells after 2 hrs by Annexin-V/propidium iodide staining based FACS analysis; type: functional
[15] = Aqueous solubility of compound in 50 mM sodium succinate buffer at >1 mM at pH 5 by 1D 1H NMR spectroscopic analysis; type: physicochemical
[16] = system: A549; test: Induction of apoptosis in human A549 cells assessed as early apoptotic cells at 200 uM after 2 hrs by Annexin-V/propidium iodide staining based FACS analysis (reference value: 2%); type: functional
[17] = Aqueous solubility of compound in 50 mM sodium succinate buffer at 2 mM at pH 5 by 1D 1H NMR spectroscopic analysis; type: physicochemical; conditions: 50 mM sodium succinate buffer, pH 5

Molecule: CSCC[C@H](NC(=O)[C@@H](NC(=O)[C@H](C)NC(=O)[C@H](Cc1ccc(O)cc1)NC(=O)[C@H](Cc1ccccc1)NC(=O)[C@H](CCCNC(=N)N)NC(=O)[C@H](N)CCCCN)C(C)C)C(=O)N[C@@H](Cc1c[nH]c2ccccc12)C(=O)N[C@@H](CCCCN)C(=O)N[C@H](CCCCN)C(=O)O (H-[dK]RFYAVMWK[dK]-OH)
- Activity [1]: 12%

Molecule: CSCC[C@H](NC(=O)[C@H](C)NC(=O)[C@@H](NC(=O)[C@H](Cc1ccc(O)cc1)NC(=O)[C@H](Cc1ccccc1)NC(=O)[C@H](CCCNC(=N)N)NC(=O)[C@H](N)CCCCN)C(C)C)C(=O)N[C@@H](Cc1c[nH]c2ccccc12)C(=O)N[C@@H](CCCCN)C(=O)N[C@H](CCCCN)C(=O)O (H-[dK]RFYVAMWK[dK]-OH)
- Activity [1]: 30%

Molecule: CSCC[C@H](NC(=O)[C@@H](NC(=O)[C@@H](NC(=O)[C@H](Cc1ccc(O)cc1)NC(=O)[C@H](Cc1ccccc1)NC(=O)[C@H](CCCNC(=N)N)NC(=O)[C@H](N)CCCCN)C(C)C)C(C)C)C(=O)N[C@@H](Cc1c[nH]c2ccccc12)C(=O)N[C@@H](CCCCN)C(=O)N[C@H](CCCCN)C(=O)O
- Activity [2]: 60%
- Activity [3]: 77%
- Activity [4]: Dose-dependent effect
- Activity [5]: 25%
- Activity [6]: 52%
- Activity [7]: 6%
- Activity [8]: 80%
- Activity [9]: 38%
- Activity [10]: Dose-dependent effect
- Activity [11]: 4%
- Stability [12]: Stable
- Activity [13]: 25%
- Activity [1]: 63%
- Activity [14]: Dose-dependent effect
- solubility [15]: Soluble
- Activity [16]: 5%

Molecule: CC(C)[C@H](NC(=O)[C@H](Cc1ccc(O)cc1)NC(=O)[C@H](Cc1ccccc1)NC(=O)[C@H](CCCNC(=N)N)NC(=O)[C@H](N)CCCCN)C(=O)N[C@H](C(=O)N[C@@H](C)C(=O)N[C@@H](Cc1c[nH]c2ccccc12)C(=O)N[C@@H](CCCCN)C(=O)N[C@H](CCCCN)C(=O)O)C(C)C (H-[dK]RFYVVAWK[dK]-OH)
- Activity [1]: 6%

Molecule: CSCC[C@H](NC(=O)[C@@H](NC(=O)[C@@H](NC(=O)[C@H](Cc1ccc(O)cc1)NC(=O)[C@H](Cc1ccccc1)NC(=O)[C@@H](N)CCCNC(=N)N)C(C)C)C(C)C)C(=O)N[C@@H](Cc1c[nH]c2ccccc12)C(=O)N[C@@H](CCCCN)C(=O)O
- solubility at 2000 µM [17]: 30 µM (≈ 33.9 µg/mL)
- Activity [1]: 13%

Molecule: H-KRFYGGMWKK-OH
- Activity [1]: 2%

Molecule: CSCC[C@H](NC(=O)[C@@H](NC(=O)[C@@H](NC(=O)[C@H](Cc1ccc(O)cc1)NC(=O)[C@H](Cc1ccccc1)NC(=O)[C@H](C)NC(=O)[C@H](N)CCCCN)C(C)C)C(C)C)C(=O)N[C@@H](Cc1c[nH]c2ccccc12)C(=O)N[C@@H](CCCCN)C(=O)N[C@H](CCCCN)C(=O)O (H-[dK]AFYVVMWK[dK]-OH)
- Activity [1]: 44%

Molecule: CSCC[C@H](NC(=O)[C@@H](NC(=O)[C@@H](NC(=O)[C@H](Cc1ccc(O)cc1)NC(=O)[C@H](Cc1ccccc1)NC(=O)[C@H](CCCNC(=N)N)NC(=O)[C@H](N)CCCCN)C(C)C)C(C)C)C(=O)N[C@@H](C)C(=O)N[C@@H](CCCCN)C(=O)N[C@H](CCCCN)C(=O)O (H-[dK]RFYVVMAK[dK]-OH)
- Activity [1]: 35%

Reference: ChEMBL document CHEMBL3853322, “Thrombospondin-1 Mimetic Agonist Peptides Induce Selective Death in Tumor Cells: Design, Synthesis, and Structure-Activity Relationship Studies” (J Med Chem, 2016)
